# Where two headings read alike, the source gives them in different places.
# Columns and labels:
# [1] = WST-1 cellular toxicity assay, HG23 replicon-bearing cells; type: cell-based; conditions: human, HG23 Norwalk virus replicon-bearing cells, WST-1 viability
# [2] = test system: RNA viruses; assay: Antiviral activity across the panel of RNA viruses tested; type: cell-based; conditions: 5 µM
# Source text: (§1) Cells were freeze-thawed twice.
# [3] = mouse
# [4] = WST-1 cellular toxicity assay, bone marrow-derived macrophages; conditions: Swiss Webster, mouse
# [5] = Aqueous solubility as per Lipinski et al.; conditions: for solubility: kinetic from dmso stock
# [6] = test system: MNV-1; conditions: 5 µM; for decrease in MNV-1 titers compared to DMSO: 30 minute pre-treatment, RAW 264.7, 8 hours; for viral titer decrease compared to DMSO: administered 1 hour post infection, RAW 264.7
# [7] = test system: La Crosse virus (LCV); assay: La Crosse virus infection of Be2-c cells, plaque assay; type: cell-based; conditions: 5 µM, 30 minutes pre-treatment, MOI 5, 12 hours
# Source text: as §1
# [8] = test system: Encephalomyocarditis virus (EMCV); assay: Encephalomyocarditis virus infection of Vero cells, plaque assay; type: cell-based; conditions: 5 µM, 30 minutes pre-treatment, MOI 5, 12 hours
# Source text: as §1
# [9] = test system: Tulane virus; assay: Tulane virus infection of LLC-MK2 cells, plaque assay; type: cell-based; conditions: 5 µM, 30 minutes pre-treatment, MOI 5, 24 hours
# Source text: as §1
# [10] = test system: Norwalk virus; assay: HuNoV replicon assay in HG23 cells, Norwalk virus genomes by qRT-PCR; conditions: for reduction of detectable Norwalk virus genomes compared to DMSO: 5 µM, 24 hours, HG23 cells; for EC50: Norwalk virus, HG23, 24 h, read-out: EC50 HG23
# [11] = test system: Sindbis virus; assay: Sindbis virus infection of Vero cells, plaque assay; type: cell-based; conditions: 5 µM, 30 minutes pre-treatment, MOI 5, 12 hours
# Source text: as §1
# [12] = test system: MNV-1; conditions: previously determined by the authors; cited from earlier work
# [13] = physchem; conditions: kinetic from dmso stock
# [14] = in vitro; conditions: Swiss Webster, mouse
# [15] = test system: Vesicular Stomatitis Virus (VSV); type: cell-based
# [16] = in vitro; conditions: mouse
SMILES,CC50 at 24 h [1],antiviral activity against any of the viruses tested [2],CC50 [3],CC50 [4],solubility [5],decrease in MNV-1 titers compared to DMSO [6],viral titer decrease compared to DMSO [6],effect on La Crosse virus infectious titers [7],effect on EMCV infectious titers [8],effect on Tulane virus infectious titers [9],"expected aqueous solubility (not determined, limited availability) ([5]; relative to WP1130)",reduction of detectable Norwalk virus genomes compared to DMSO [10],EC50 [10],effect on Sindbis virus infectious titers [11],EC50 [12],solubility [13],CC50 [14],inhibition of VSV infection [15],CC50 [16]
CCC[C@H](NC(=O)/C=C/c1cccc(Br)n1)c1ccccc1 [Compound 1],7.2 µM,no antiviral activity,24.7 µM,10.4 µM,–,–,–,–,–,–,–,–,–,–,–,–,–,–,–
CCC[C@H](NC(=O)C(C#N)Cc1cccc(Br)n1)c1ccccc1 (stereo partly drawn) [Compound 2],8.71 µM,no antiviral activity,24.9 µM,8.53 µM,–,–,–,–,–,–,–,–,–,–,–,–,–,–,–
CCCC(NC(=O)/C(C#N)=C/c1cccc(Br)n1)c1ccc(OCCN(C)C)cc1 (stereo not drawn) [Compound 3],7.82 µM,no effect,9.43 µM,6.12 µM,19 µM,–,–,–,–,–,–,–,–,–,–,–,–,–,–
CCC(NC(=O)/C(C#N)=C/c1cccc(Br)n1)c1ccc(O)cc1 (stereo not drawn) [Compound 4],9.26 µM,–,11 µM,15.2 µM,–,1.95 log,1.73 log,only effective against Tulane virus,only effective against Tulane virus,effective,more soluble than WP1130 but less soluble than compound 7,approximately 30%,6.52 µM,only effective against Tulane virus,–,–,–,–,–
CCCC(NC(=O)/C(C#N)=C/c1cccnc1F)c1ccc(OCCN2CCOCC2)cc1 (stereo not drawn) [Compound 5],7.61 µM,–,15.4 µM,11.3 µM,14 µM,2.52 log,2.67 log,only effective against Tulane virus,only effective against Tulane virus,effective,–,about 64%,4.28 µM,only effective against Tulane virus,–,–,–,–,–
CCCC(NC(=O)/C(C#N)=C/c1ccccn1)c1ccc(OCCN2CCOCC2)cc1 (stereo not drawn) [Compound 6],10.4 µM,–,7.46 µM,11.1 µM,160 µM,2.55 log,2.50 log,significantly reduced infectious titers,significantly reduced infectious titers,significantly reduced infectious titers,–,about 64%,4.17 µM,significantly reduced infectious titers,–,–,–,–,–
CCCC(NC(=O)/C(C#N)=C/c1cccc(F)n1)c1ccc(OCCN2CCOCC2)cc1 (stereo not drawn) [Compound 7],6.12 µM,–,13.7 µM,7.11 µM,14 µM,2.60 log,1.51 log,significantly decreased infection,"not of EMCV, although a trend towards antiviral activity was present",significantly decreased infection,–,~80%,3.37 µM,significantly decreased infection,–,–,–,–,–
"CCC[C@H](NC(=O)/C(C#N)=C/c1cccc(Br)n1)c1ccccc1 [WP1130, reference compound]",6.2 µM,–,–,–,–,2.0 log,–,significantly reduced infectious titers,significantly reduced infectious titers,significantly reduced infectious titers,–,–,–,significantly reduced infectious titers,5.06 µM,~3.2 µM,6.46 µM,not inhibited,9.95 µM

# Reference: paper PMC3983190, “Chemical Derivatives of a Small Molecule Deubiquitinase Inhibitor Have Antiviral Activity against Several RNA Viruses” (PLoS ONE, 2014)
